# Source: patent US9211310B2, “Use of a Chinese medicine composition in preparing medicaments for treating secondary prevention of myocardial infarction” (TASLY PHARMACEUTICAL GROUP CO., LTD, priority 2010, dated 2015)
# System: patients after acute myocardial infarction
# Assay: Angina pectoris score, total and single (frequency/attack times, duration, pain degree, dose of nitroglycerin), same clinical trial
# Assay type: in vivo, human
# Description: In order to better understand the present invention, a multi-center, randomized, double-blind, double-dummy and positive drug controlled trial had been conducted. 3508 patients who were in accordance with the diagnostic standards of AMI for 28 days to 2 years and differentiated as Qi deficiency and blood stagnation syndrome by TCM were studied. 0.5 g Chinese medicine composition prepared by the method of EXAMPLE 1 (Coded as QSYQ) was administrated half an hour after meal, 3 times per day. Aspirine was used as a positive drug. The patients were treated for 1 year and observed for 6 months.
# They included the overall survival time, angina pectoris score, TCM symptom score and life quality score, where angina pectoris score, TCM symptom score and life quality score were evaluated at randomization, in 1st, 3rd, 6th, 9th, 12th month after treatment and 18th month after follow-up.
# (§1) Total angina pectoris score was described on every observation period and the change of observation in comparison with baseline. T-test or Wilcoxon rank sum test were used for inter-group comparison. Grade of total score was evaluated on every observation and Wilcoxon rank sum test was used for inter-group comparison. T-test and Pairing signed rank sum test were used for analyzing the change of total score on every observation between groups in comparison with the baseline.
# (§2) Single angina pectoris score was depicted on every observation time-point and the change of observation in comparison with baseline. Wilcoxon rank sum test was used for inter-group comparison. Pairing signed rank sum test was used for analyzing the change of total score on every observation between groups in comparison with the baseline.
# as §1, with “comparison with the baseline. T-test” for “comparison with baseline. T-test”
# as §2, with “described” for “depicted”
smiles,measurement,setting,value
"CC(=O)Oc1ccccc1C(=O)O [Control group, aspirine]","change of attack times score, patients (%)","1 month after treatment-baseline, change 0, FAS",(74.81%)
same,"change of attack times score, patients (%)","1 month after treatment-baseline, change 0, PP",(74.53%)
same,"change of attack times score, patients (%)","1 month after treatment-baseline, change 1, FAS",(2.07%)
same,"change of attack times score, patients (%)","1 month after treatment-baseline, change 1, PP",(1.95%)
same,"change of attack times score, patients (%)","1 month after treatment-baseline, change 2, FAS",(2.35%)
same,"change of attack times score, patients (%)","1 month after treatment-baseline, change 2, PP",(2.08%)
same,"change of attack times score, patients (%)","1 month after treatment-baseline, change 3, FAS",(0.11%)
same,"change of attack times score, patients (%)","1 month after treatment-baseline, change 3, PP",(0.13%)
same,"change of attack times score, patients (%)","1 month after treatment-baseline, change 4, FAS",(0.06%)
same,"change of attack times score, patients (%)","1 month after treatment-baseline, change 4, PP",(0.07%)
same,"change of attack times score, patients (%)","1 month after treatment-baseline, change −1, FAS",(7.11%)
same,"change of attack times score, patients (%)","1 month after treatment-baseline, change −1, PP",(7.06%)
same,"change of attack times score, patients (%)","1 month after treatment-baseline, change −2, FAS",(11.99%)
same,"change of attack times score, patients (%)","1 month after treatment-baseline, change −2, PP",(12.63%)
same,"change of attack times score, patients (%)","1 month after treatment-baseline, change −3, FAS",(0.34%)
same,"change of attack times score, patients (%)","1 month after treatment-baseline, change −3, PP",(0.40%)
same,"change of attack times score, patients (%)","1 month after treatment-baseline, change −4, FAS",(1.03%)
same,"change of attack times score, patients (%)","1 month after treatment-baseline, change −4, PP",(1.08%)
same,"change of attack times score, patients (%)","1 month after treatment-baseline, change −5, FAS",(0.00%)
same,"change of attack times score, patients (%)","1 month after treatment-baseline, change −5, PP",(0.00%)
same,"change of attack times score, patients (%)","1 month after treatment-baseline, change −6, FAS",(0.11%)
same,"change of attack times score, patients (%)","1 month after treatment-baseline, change −6, PP",(0.07%)
same,"attack times score, patients (%)","3 months after treatment, score 0, FAS",(40.02%)
same,"attack times score, patients (%)","3 months after treatment, score 0, PP",(40.46%)
same,"attack times score, patients (%)","3 months after treatment, score 1, FAS",(14.11%)
same,"attack times score, patients (%)","3 months after treatment, score 1, PP",(13.92%)
same,"attack times score, patients (%)","3 months after treatment, score 2, FAS",(41.46%)
same,"attack times score, patients (%)","3 months after treatment, score 2, PP",(41.89%)
same,"attack times score, patients (%)","3 months after treatment, score 4, FAS",(4.30%)
same,"attack times score, patients (%)","3 months after treatment, score 4, PP",(3.60%)
same,"attack times score, patients (%)","3 months after treatment, score 6, FAS",(0.11%)
same,"attack times score, patients (%)","3 months after treatment, score 6, PP",(0.14%)
same,"change of attack times score, patients (%)","3 months after treatment-baseline, change 0, FAS",(65.52%)
same,"change of attack times score, patients (%)","3 months after treatment-baseline, change 0, PP",(65.15%)
same,"change of attack times score, patients (%)","3 months after treatment-baseline, change 1, FAS",(3.10%)
same,"change of attack times score, patients (%)","3 months after treatment-baseline, change 1, PP",(2.79%)
same,"change of attack times score, patients (%)","3 months after treatment-baseline, change 2, FAS",(2.24%)
same,"change of attack times score, patients (%)","3 months after treatment-baseline, change 2, PP",(1.83%)
same,"change of attack times score, patients (%)","3 months after treatment-baseline, change 3, FAS",(0.00%)
same,"change of attack times score, patients (%)","3 months after treatment-baseline, change 4, FAS",(0.17%)
same,"change of attack times score, patients (%)","3 months after treatment-baseline, change 4, PP",(0.14%)
same,"change of attack times score, patients (%)","3 months after treatment-baseline, change −1, FAS",(10.96%)
same,"change of attack times score, patients (%)","3 months after treatment-baseline, change −1, PP",(11.21%)
same,"change of attack times score, patients (%)","3 months after treatment-baseline, change −2, FAS",(15.78%)
same,"change of attack times score, patients (%)","3 months after treatment-baseline, change −2, PP",(16.51%)
same,"change of attack times score, patients (%)","3 months after treatment-baseline, change −3, FAS",(0.46%)
same,"change of attack times score, patients (%)","3 months after treatment-baseline, change −3, PP",(0.54%)
same,"change of attack times score, patients (%)","3 months after treatment-baseline, change −4, FAS",(1.43%)
same,"change of attack times score, patients (%)","3 months after treatment-baseline, change −4, PP",(1.56%)
same,"change of attack times score, patients (%)","3 months after treatment-baseline, change −5, FAS",(0.11%)
same,"change of attack times score, patients (%)","3 months after treatment-baseline, change −5, PP",(0.14%)
same,"change of attack times score, patients (%)","3 months after treatment-baseline, change −6, FAS",(0.23%)
same,"change of attack times score, patients (%)","3 months after treatment-baseline, change −6, PP",(0.14%)
same,"attack times score, patients (%)","6 months after treatment, score 0, FAS",(44.55%)
same,"attack times score, patients (%)","6 months after treatment, score 0, PP",(45.98%)
same,"attack times score, patients (%)","6 months after treatment, score 1, FAS",(15.54%)
same,"attack times score, patients (%)","6 months after treatment, score 1, PP",(15.92%)
same,"attack times score, patients (%)","6 months after treatment, score 2, FAS",(36.81%)
same,"attack times score, patients (%)","6 months after treatment, score 2, PP",(36.17%)
same,"attack times score, patients (%)","6 months after treatment, score 4, FAS",(3.04%)
same,"attack times score, patients (%)","6 months after treatment, score 4, PP",(1.85%)
same,"attack times score, patients (%)","6 months after treatment, score 6, FAS",(0.06%)
same,"attack times score, patients (%)","6 months after treatment, score 6, PP",(0.07%)
same,"change of attack times score, patients (%)","6 months after treatment-baseline, change 0, FAS",(57.95%)
same,"change of attack times score, patients (%)","6 months after treatment-baseline, change 0, PP",(56.80%)
same,"change of attack times score, patients (%)","6 months after treatment-baseline, change 1, FAS",(2.47%)
same,"change of attack times score, patients (%)","6 months after treatment-baseline, change 1, PP",(1.92%)
same,"change of attack times score, patients (%)","6 months after treatment-baseline, change −1, FAS",(15.20%)
same,"change of attack times score, patients (%)","6 months after treatment-baseline, change −1, PP",(16.07%)
same,"change of attack times score, patients (%)","6 months after treatment-baseline, change −2, FAS",(18.70%)
same,"change of attack times score, patients (%)","6 months after treatment-baseline, change −2, PP",(19.92%)
same,"change of attack times score, patients (%)","6 months after treatment-baseline, change −3, FAS",(0.92%)
same,"change of attack times score, patients (%)","6 months after treatment-baseline, change −3, PP",(1.10%)
same,"change of attack times score, patients (%)","6 months after treatment-baseline, change −4, FAS",(1.78%)
same,"change of attack times score, patients (%)","6 months after treatment-baseline, change −4, PP",(1.92%)
same,"change of attack times score, patients (%)","6 months after treatment-baseline, change −5, FAS",(0.00%)
same,"change of attack times score, patients (%)","6 months after treatment-baseline, change −5, PP",(0.00%)
same,"change of attack times score, patients (%)","6 months after treatment-baseline, change −6, FAS",(0.34%)
same,"change of attack times score, patients (%)","6 months after treatment-baseline, change −6, PP",(0.27%)
same,"attack times score, patients (%)","9 months after treatment, score 0, FAS",(47.31%)
same,"attack times score, patients (%)","9 months after treatment, score 0, PP",(49.06%)
same,"attack times score, patients (%)","9 months after treatment, score 1, FAS",(20.30%)
same,"attack times score, patients (%)","9 months after treatment, score 1, PP",(21.62%)
same,"attack times score, patients (%)","9 months after treatment, score 2, FAS",(30.22%)
same,"attack times score, patients (%)","9 months after treatment, score 2, PP",(28.34%)
same,"attack times score, patients (%)","9 months after treatment, score 4, FAS",(2.06%)
same,"attack times score, patients (%)","9 months after treatment, score 4, PP",(0.83%)
same,"attack times score, patients (%)","9 months after treatment, score 6, FAS",(0.11%)
same,"attack times score, patients (%)","9 months after treatment, score 6, PP",(0.14%)
same,"attack times score, patients (%)","12 months after treatment, score 0, FAS",(52.12%)
same,"attack times score, patients (%)","12 months after treatment, score 0, PP",(55.03%)
same,"attack times score, patients (%)","12 months after treatment, score 1, FAS",(22.02%)
same,"attack times score, patients (%)","12 months after treatment, score 1, PP",(23.88%)
same,"attack times score, patients (%)","12 months after treatment, score 2, FAS",(23.91%)
same,"attack times score, patients (%)","12 months after treatment, score 2, PP",(20.53%)
same,"attack times score, patients (%)","12 months after treatment, score 4, FAS",(1.89%)
same,"attack times score, patients (%)","12 months after treatment, score 4, PP",(0.56%)
same,"attack times score, patients (%)","12 months after treatment, score 6, FAS",(0.06%)
same,"change of attack times score, patients (%)","12 months after treatment-baseline, change 0, FAS",(45.61%)
same,"change of attack times score, patients (%)","12 months after treatment-baseline, change 0, PP",(41.86%)
same,"change of attack times score, patients (%)","12 months after treatment-baseline, change 1, FAS",(2.07%)
same,"change of attack times score, patients (%)","12 months after treatment-baseline, change 1, PP",(1.33%)
same,"change of attack times score, patients (%)","12 months after treatment-baseline, change 2, FAS",(1.72%)
same,"change of attack times score, patients (%)","12 months after treatment-baseline, change 2, PP",(1.19%)
same,"change of attack times score, patients (%)","12 months after treatment-baseline, change 3, FAS",(0.06%)
same,"change of attack times score, patients (%)","12 months after treatment-baseline, change 4, FAS",(0.17%)
same,"change of attack times score, patients (%)","12 months after treatment-baseline, change 4, PP",(0.14%)
same,"change of attack times score, patients (%)","12 months after treatment-baseline, change −1, FAS",(22.89%)
same,"change of attack times score, patients (%)","12 months after treatment-baseline, change −1, PP",(25.44%)
same,"change of attack times score, patients (%)","12 months after treatment-baseline, change −2, FAS",(23.01%)
same,"change of attack times score, patients (%)","12 months after treatment-baseline, change −2, PP",(25.02%)
same,"change of attack times score, patients (%)","12 months after treatment-baseline, change −3, FAS",(0.86%)
same,"change of attack times score, patients (%)","12 months after treatment-baseline, change −3, PP",(1.05%)
same,"change of attack times score, patients (%)","12 months after treatment-baseline, change −4, FAS",(3.16%)
same,"change of attack times score, patients (%)","12 months after treatment-baseline, change −4, PP",(3.56%)
same,"change of attack times score, patients (%)","12 months after treatment-baseline, change −5, FAS",(0.06%)
same,"change of attack times score, patients (%)","12 months after treatment-baseline, change −5, PP",(0.07%)
same,"change of attack times score, patients (%)","12 months after treatment-baseline, change −6, FAS",(0.40%)
same,"change of attack times score, patients (%)","12 months after treatment-baseline, change −6, PP",(0.35%)
same,"attack times score, patients (%)","Baseline, score 0, FAS",(27.54%)
same,"attack times score, patients (%)","Baseline, score 0, PP",(26.99%)
same,"attack times score, patients (%)","Baseline, score 1, FAS",(9.06%)
